Blank lines part the entries; values can stand above or below the compound they belong to. Active and inactive are the calls of the source.
Key:
cells [1] = format: functional, cell-based
[2] = target: T1, Trace amine-associated receptor 1 (Homo sapiens, UniProt Q96RJ0); experiment: Fluorescence-based cell-based high throughput dose response assay to identify agonists of the human trace amine associated receptor 1 (TAAR1).; format: functional
T1 sequence (Q96RJ0 whole entry): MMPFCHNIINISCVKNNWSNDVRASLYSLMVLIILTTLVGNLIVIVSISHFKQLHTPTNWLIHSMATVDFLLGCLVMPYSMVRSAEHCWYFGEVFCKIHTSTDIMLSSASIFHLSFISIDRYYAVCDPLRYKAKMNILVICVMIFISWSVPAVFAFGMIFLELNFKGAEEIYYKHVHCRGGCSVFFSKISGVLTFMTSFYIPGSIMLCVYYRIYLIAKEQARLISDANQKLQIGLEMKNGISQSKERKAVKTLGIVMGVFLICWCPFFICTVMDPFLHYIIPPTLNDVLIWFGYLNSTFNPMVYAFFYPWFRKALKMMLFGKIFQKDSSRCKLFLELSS

[3] = target: T1, Trace amine-associated receptor 1; experiment: Counterscreen for agonists of the human trace amine associated receptor 1 (hTAAR1): Fluorescence-based cell-based high throughput dose response assay to identify hTAAR1 agonist that also desensitize TAAR1 receptor response.; format: functional
cells [4] = format: functional, cell-based; remark: listed apart in the source
[5] = Vero cell cytotoxicity, dose response, cytotoxicity control for Vif-APOBEC3G degradation inhibitor project, Vero cells (AID 1117358); format: functional; conditions: Human immunodeficiency virus 1, Vero
[6] = target: T2, Short transient receptor potential channel 4 (Mus musculus, UniProt Q9QUQ5); experiment: mouse TRPC4 channel activators, dose response, cell-based, HEK293 TRPC4/mu-opioid, Fluo-4 calcium (AID 434937); format: functional
T2 sequence (Q9QUQ5 whole entry): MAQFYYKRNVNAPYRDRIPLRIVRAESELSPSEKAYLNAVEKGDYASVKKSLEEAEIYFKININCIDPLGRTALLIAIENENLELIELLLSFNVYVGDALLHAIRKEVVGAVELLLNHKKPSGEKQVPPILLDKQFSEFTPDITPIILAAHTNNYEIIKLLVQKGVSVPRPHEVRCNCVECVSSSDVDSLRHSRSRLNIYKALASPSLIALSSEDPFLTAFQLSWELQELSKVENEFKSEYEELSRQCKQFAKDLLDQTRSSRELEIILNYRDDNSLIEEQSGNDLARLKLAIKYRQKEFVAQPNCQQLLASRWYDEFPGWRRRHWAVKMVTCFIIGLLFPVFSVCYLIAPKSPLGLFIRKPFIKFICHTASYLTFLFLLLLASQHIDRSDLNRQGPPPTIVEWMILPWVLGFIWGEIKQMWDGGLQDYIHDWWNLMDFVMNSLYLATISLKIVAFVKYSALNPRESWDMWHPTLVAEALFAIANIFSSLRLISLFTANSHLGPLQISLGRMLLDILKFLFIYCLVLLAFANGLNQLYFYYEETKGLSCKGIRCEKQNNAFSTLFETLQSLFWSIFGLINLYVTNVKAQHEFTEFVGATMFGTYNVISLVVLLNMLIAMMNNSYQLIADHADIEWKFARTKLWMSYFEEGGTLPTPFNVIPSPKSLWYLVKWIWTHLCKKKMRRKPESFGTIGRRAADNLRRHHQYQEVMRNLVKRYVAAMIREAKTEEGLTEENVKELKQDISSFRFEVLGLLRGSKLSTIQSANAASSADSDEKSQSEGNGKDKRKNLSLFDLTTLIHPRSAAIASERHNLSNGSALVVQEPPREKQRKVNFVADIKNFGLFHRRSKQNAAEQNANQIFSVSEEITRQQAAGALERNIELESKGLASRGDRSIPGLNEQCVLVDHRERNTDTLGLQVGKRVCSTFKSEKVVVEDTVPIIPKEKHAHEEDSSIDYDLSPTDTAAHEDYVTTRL

[7] = target: T3, Corticotropin-releasing factor receptor 2/Corticotropin-releasing factor-binding protein (Homo sapiens, UniProt P24387+Q13324); experiment: activators of CRF receptor 2 with binding protein – uHTS hits, confirmation (AID 602473); format: functional; conditions: read-out: EC50_Mean
T3 sequence (Q13324 whole entry): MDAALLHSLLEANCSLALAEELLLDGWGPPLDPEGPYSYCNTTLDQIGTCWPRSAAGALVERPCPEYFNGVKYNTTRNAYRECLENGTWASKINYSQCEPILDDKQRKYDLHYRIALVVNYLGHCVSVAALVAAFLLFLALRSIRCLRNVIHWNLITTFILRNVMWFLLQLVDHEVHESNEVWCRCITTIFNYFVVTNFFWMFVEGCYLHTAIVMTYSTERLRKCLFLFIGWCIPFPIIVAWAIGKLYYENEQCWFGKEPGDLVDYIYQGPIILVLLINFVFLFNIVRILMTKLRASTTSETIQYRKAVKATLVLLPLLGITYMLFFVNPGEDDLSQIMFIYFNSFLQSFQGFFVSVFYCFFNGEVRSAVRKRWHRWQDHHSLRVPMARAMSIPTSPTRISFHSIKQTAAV
T3 sequence (P24387 whole entry): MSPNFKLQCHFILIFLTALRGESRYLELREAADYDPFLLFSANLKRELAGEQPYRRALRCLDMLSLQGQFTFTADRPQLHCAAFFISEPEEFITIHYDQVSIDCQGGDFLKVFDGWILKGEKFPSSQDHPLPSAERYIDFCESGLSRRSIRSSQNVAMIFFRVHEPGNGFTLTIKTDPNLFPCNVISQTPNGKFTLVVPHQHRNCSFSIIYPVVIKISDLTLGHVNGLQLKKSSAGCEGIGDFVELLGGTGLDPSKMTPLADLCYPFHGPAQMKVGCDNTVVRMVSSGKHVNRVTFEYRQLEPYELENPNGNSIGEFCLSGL

Large T antigen = Large T antigen (Simian virus 40, UniProt P03070); format: functional, Betapolyomavirus macacae;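 further: Confirmatory-stage PubChem screen for compounds that inhibit SV40 T antigen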
[8] = target: Induced myeloid leukemia cell differentiation protein Mcl-1 (Homo sapiens, UniProt Q07820); format: functional
Genome polyprotein = Genome polyprotein (dengue virus type 2, UniProt P29990); experiment: Dengue-2 NS5 methyltransferase inhibitors, primary screen, biochemical, confirmation dose response (AID 588689); format: functional
Fatty acid synthase [9] = target: T4, Fatty acid synthase (Homo sapiens, UniProt P49327); experiment: FAS thioesterase domain inhibitors, dose response, biochemical, endpoint fluorescence intensity, uHTS hits (AID 624327); format: functional;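 further: fluorescence from hydrolysis of an O-methyl fluorescein acyl ester substrate by the enzyme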
Fatty acid synthase [10] = target: T4, Fatty acid synthase; experiment: FAS thioesterase domain inhibitors, dose response, biochemical, kinetic fluorescence intensity (AID 624326); format: functional;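 further: rate of fluorescence rise from hydrolysis of a fluorogenic O-methyl fluorescein ester substrate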
[11] = insulin promoter down-regulators in MIN6 cells, imaging, high-content screening, mouse beta cells (AID 1628); format: functional
[12] = cytotoxicity in MIN6 insulinoma cells, dose response, cytotoxicity control, cell-based, mouse insulinoma (AID 2122); format: functional;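 further: confirmatory high-throughput counterscreen run to flag cytotoxic compounds; mouse MIN-6 beta cells carrying an insulin promoter eGFP reporter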
[13] = Luminescence Cell-Based Dose Retest to Confirm Inhibitors of Cancer Stem Cells. [Related pubchem assays (depositor defined):AID2717, AID2721]; format: functional; conditions: Homo sapiens
[14] = inhibitors of Vif binding to APOBEC3G peptide, primary screen, biochemical, TR-FRET, GST-Vif 1-94, biotin-A3G peptide, dose response retest (AID 1117319); format: functional;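 further: TR-FRET signal of purified GST-Vif binding a biotinylated A3G peptide; inhibitors lower the FRET signal by blocking Vif and A3G binding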
Cytochrome P450 2C19 = Cytochrome P450 2C19 (Homo sapiens, UniProt P33261); experiment: Cytochrome panel assay with activity outcomes. Panel member name: p450-cyp2c19 Compounds with AC50 equal or less than 10 uM are considered active; format: functional
Cytochrome P450 2C9 = Cytochrome P450 2C9 (Homo sapiens, UniProt P11712)
[15] = NIH-3T3 fibroblast cytotoxicity, dose response, cytotoxicity control, cell-based, fluorescence, Alamar Blue, secondary assay (AID 2327); format: functional;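 further: NIH-3T3 mouse fibroblasts cultured with fluconazole at 8 µg/mL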

T4 sequence (P49327 whole entry, the tested form may be a part): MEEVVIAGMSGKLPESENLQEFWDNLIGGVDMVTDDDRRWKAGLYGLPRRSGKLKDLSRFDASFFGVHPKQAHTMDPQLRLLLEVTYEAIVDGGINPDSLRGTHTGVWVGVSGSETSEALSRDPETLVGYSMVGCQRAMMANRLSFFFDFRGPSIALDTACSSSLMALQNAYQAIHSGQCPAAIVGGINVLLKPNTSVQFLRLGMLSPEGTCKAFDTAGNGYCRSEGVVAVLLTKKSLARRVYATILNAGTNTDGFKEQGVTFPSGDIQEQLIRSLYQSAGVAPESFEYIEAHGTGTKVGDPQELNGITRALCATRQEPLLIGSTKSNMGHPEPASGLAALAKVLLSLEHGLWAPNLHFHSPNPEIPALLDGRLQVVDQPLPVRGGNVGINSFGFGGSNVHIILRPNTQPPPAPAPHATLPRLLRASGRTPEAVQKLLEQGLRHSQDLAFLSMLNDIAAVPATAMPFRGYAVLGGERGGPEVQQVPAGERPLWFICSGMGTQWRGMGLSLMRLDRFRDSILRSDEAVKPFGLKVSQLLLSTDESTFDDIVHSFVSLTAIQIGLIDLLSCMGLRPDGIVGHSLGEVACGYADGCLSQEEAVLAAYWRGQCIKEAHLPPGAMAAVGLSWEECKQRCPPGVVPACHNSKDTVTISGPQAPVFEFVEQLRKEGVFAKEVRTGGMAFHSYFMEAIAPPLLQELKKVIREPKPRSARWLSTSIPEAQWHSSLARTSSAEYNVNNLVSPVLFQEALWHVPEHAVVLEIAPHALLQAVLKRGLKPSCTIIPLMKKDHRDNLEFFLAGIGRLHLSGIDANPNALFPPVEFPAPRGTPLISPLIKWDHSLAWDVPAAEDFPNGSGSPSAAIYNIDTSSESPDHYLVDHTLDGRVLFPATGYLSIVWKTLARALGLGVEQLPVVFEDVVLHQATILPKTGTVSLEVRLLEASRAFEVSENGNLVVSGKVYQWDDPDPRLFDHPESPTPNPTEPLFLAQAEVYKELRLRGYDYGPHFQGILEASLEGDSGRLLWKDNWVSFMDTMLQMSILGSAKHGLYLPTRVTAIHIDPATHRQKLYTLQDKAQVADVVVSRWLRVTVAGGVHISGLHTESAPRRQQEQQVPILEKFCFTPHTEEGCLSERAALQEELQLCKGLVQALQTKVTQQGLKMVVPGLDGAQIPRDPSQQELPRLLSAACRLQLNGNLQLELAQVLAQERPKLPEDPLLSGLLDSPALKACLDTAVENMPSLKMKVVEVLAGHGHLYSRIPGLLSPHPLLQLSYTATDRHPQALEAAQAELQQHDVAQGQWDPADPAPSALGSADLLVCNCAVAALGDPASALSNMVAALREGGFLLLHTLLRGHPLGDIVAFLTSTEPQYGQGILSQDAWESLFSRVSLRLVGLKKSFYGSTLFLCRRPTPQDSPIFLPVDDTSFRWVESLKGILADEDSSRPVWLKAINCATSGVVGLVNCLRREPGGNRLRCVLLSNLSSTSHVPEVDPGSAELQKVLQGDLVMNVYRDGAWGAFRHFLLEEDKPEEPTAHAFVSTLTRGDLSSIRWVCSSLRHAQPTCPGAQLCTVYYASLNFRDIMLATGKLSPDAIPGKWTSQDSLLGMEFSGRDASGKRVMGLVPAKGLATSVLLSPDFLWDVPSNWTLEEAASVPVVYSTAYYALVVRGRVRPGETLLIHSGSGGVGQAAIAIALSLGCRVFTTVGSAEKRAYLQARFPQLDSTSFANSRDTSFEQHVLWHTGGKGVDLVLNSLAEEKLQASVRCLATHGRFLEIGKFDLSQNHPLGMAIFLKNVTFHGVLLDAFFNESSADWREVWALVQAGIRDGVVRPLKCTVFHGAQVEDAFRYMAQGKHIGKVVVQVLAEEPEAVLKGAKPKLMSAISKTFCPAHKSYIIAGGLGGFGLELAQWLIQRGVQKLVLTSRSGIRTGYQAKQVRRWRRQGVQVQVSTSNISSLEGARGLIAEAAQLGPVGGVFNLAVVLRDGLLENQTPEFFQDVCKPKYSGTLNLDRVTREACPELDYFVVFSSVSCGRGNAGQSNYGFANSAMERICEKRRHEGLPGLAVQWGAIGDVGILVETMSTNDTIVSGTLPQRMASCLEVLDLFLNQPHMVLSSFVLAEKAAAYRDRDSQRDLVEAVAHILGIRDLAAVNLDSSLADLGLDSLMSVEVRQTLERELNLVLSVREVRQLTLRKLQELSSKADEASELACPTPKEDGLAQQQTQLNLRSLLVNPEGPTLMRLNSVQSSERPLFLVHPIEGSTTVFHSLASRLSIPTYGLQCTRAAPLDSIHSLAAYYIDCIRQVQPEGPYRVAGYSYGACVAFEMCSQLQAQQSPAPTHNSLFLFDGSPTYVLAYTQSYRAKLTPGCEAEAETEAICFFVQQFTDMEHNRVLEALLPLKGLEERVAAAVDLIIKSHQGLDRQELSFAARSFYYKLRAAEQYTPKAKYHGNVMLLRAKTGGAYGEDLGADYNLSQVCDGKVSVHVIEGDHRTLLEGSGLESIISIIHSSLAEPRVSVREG
Cytochrome P450 2C19, sequence (P33261 whole entry): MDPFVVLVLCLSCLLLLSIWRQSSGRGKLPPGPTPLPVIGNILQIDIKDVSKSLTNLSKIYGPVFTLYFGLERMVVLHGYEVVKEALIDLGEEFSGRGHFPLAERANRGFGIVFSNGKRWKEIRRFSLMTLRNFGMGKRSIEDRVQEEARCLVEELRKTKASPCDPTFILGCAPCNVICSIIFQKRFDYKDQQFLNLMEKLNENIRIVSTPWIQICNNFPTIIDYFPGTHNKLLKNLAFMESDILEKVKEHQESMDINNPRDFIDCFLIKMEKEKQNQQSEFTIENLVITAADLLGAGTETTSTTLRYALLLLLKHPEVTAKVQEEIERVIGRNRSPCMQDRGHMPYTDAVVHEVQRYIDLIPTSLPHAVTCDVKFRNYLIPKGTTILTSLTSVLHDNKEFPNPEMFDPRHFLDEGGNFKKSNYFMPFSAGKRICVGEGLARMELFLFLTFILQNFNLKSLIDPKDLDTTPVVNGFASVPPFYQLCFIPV
Large T antigen, sequence (P03070 whole entry): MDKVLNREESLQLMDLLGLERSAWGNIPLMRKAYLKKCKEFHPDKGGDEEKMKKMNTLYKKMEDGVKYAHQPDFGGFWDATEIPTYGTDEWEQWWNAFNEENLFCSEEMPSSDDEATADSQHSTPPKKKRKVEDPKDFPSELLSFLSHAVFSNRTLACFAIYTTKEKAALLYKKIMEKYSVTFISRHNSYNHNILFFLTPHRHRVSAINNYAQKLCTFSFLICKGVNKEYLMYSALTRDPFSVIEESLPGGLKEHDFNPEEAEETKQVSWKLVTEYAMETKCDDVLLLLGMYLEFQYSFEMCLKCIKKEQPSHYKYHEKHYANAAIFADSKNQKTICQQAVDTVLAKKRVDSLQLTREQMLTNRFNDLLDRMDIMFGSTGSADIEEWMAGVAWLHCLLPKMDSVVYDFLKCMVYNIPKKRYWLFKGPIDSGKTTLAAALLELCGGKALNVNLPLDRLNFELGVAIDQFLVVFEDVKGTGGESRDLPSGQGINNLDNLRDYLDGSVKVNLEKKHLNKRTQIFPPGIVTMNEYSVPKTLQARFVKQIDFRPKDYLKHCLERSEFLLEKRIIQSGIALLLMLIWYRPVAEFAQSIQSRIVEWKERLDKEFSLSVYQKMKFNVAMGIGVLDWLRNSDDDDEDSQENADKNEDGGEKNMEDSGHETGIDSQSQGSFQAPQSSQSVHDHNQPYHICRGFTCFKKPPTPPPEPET
Induced myeloid leukemia cell differentiation protein Mcl-1, sequence (Q07820 whole entry): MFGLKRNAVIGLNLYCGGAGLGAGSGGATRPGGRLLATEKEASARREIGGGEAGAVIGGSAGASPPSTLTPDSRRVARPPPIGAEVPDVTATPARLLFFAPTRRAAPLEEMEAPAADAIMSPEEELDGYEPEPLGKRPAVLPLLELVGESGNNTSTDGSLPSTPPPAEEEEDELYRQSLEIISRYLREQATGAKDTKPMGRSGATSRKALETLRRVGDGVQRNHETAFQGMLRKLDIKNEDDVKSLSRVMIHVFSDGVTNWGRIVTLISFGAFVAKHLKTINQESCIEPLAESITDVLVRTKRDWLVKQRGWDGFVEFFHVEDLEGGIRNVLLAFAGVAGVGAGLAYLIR
Cytochrome P450 2C9, sequence (P11712 whole entry): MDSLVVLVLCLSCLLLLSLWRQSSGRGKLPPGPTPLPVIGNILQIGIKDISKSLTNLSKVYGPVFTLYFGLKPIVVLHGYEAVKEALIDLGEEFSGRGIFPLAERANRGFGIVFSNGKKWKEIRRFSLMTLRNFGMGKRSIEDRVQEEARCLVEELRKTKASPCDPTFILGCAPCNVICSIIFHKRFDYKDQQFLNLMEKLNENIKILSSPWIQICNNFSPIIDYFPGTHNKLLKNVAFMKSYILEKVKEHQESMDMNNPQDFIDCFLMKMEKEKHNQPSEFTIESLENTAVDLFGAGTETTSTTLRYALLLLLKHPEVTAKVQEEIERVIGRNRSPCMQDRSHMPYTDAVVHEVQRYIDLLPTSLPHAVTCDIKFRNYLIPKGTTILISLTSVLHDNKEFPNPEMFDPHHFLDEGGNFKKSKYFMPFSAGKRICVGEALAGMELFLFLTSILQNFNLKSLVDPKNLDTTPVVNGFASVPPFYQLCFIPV

SMILES: COc1cc(CNCCc2ccccc2F)ccc1OCc1ccc(Cl)nc1
- IC50 (cells [1]): 28.7 µM (inactive)
- EC50 [2]: 2.83 µM (active)
- IC50 [3]: 9.47 µM (active)
- EC50 (cells [4]): 11.1 µM (inactive)
- CC50 [5]: > 40 µM (active)

- EC50 [6]: 5.96 µM (active)
- EC50 [7]: 7.94 µM (active)
SMILES: CCN1C(=O)c2cccc3c(S(=O)(=O)Nc4ccccc4OC)ccc1c23

- IC50 (Large T antigen): 59.9 µM (active)
- IC50 [8]: 5.15 µM (active)
- IC50 (Genome polyprotein): 59.6 µM (active)
- IC50 (Fatty acid synthase [9]): 2.23 µM (active)
- IC50 (Fatty acid synthase [10]): 2.54 µM (active)
SMILES: Cc1nc2ccc(NC(=O)c3cc([N+](=O)[O-])cc([N+](=O)[O-])c3Cl)cc2s1

SMILES: Clc1ccc(CN2CCN(c3ncnc4scc(-c5cccs5)c34)CC2)cc1
- IC50 [11]: 2.39 µM (active)
- IC50 [12]: 2.12 µM (active)

SMILES: Cn1nc(-c2ccc(Cl)cc2)c2cc(C(=O)NCCCN3CCOCC3)sc21
- AC50 [13]: 2.03 µM (active)
- IC50 [14]: > 100 µM (active)
- CC50 [5]: > 40 µM (active)

- AC50 (Cytochrome P450 2C19): inconclusive
- AC50 (Cytochrome P450 2C9): inconclusive
SMILES: O=C(OCCCN1CCCCC1)c1ccc(O)cc1

SMILES: C[n+]1c(-c2ccccc2)cc(CCCCc2cc(-c3ccccc3)[n+](C)c(-c3ccccc3)c2)cc1-c1ccccc1.[O-][Cl+3]([O-])([O-])[O-].[O-][Cl+3]([O-])([O-])[O-]
- EC50 [15]: > 160 µM (inactive)
- IC50 [11]: 2.72 µM (active)
- IC50 [12]: 4.7 µM (active)

Reference: ChEMBL document CHEMBL1201862, “PubChem BioAssay data set” (2004)
